Data as given in patent US20220175768A1, “FGFR TYROSINE KINASE INHIBITORS FOR THE TREATMENT OF UROTHELIAL CARCINOMA” (Janssen Pharmaceutica NV, priority 2019, published 2022).

Assays:
[1] = Pharmacokinetics in specific populations; assay type: in vivo, human; conditions: age 21-88 years, sex, race, body weight 36-132 kg, mild or moderate renal impairment, mild hepatic impairment
clinical = conditions: human, in vivo

For COc1cc(OC)cc(N(CCNC(C)C)c2ccc3ncc(-c4cnn(C)c4)nc3c2)c1 [erdafitinib, N-(3,5-dimethoxy-phenyl)-N′-(1-methylethyl)-N-[3-(1-methyl-1H-pyrazol-4-yl)quinoxalin-6-yl]ethane-1,2-diamine], the “Trends in pharmacokinetics in specific populations” value [1] was “No clinically meaningful trends”, the Vd (clinical) was 29 L and the half-life (clinical) was 59 h.
